# Test results: publication PMC7497626, “Ruthenium-Mediated ^18F-Fluorination and Preclinical Evaluation of a New CB1 Receptor Imaging Agent [^18F]FPATPP” (ACS Chemical Neuroscience, 2020)
# Read-outs that look alike come from different tables or passages of the source.
# Tests used:
# [1] = Radiometabolite analysis with [^18F]4 in plasma and cortex; format: in vivo, mouse; details: 120 min p.i., n = 5
# Description: The 2 month old animals (n = 11, used only for ex vivo studies) were used for metabolite analysis. Plasma and brain samples were collected at 30 (n = 4), 60 (n = 2), and 120 min (n = 5) p.i. Plasma samples were treated with MeCN and centrifuged to remove the proteins from the solution. Brain tissue samples were treated with the 40/60 (v/v) 1% TFA (aq)/MeCN solution and then centrifuged. The supernatants were applied to HPTLC silica gel 60 RP-18 plates (Art. 1.05914.0001, Merck, Darmstadt, Germany), and the plates were developed in 40/60 (v/v) 1% TFA (aq)/ MeCN. After drying, the TLC plates were exposed to an imaging plate for approximately 4 h and the imaging plate was scanned with a Fuji Analyzer BAS5000. The amount of [^18F]4 and its radioactive metabolites were analyzed with the Aida 4 program, and the curves were fitted with GraphPad Prism 6.0 (GraphPad Software, San Diego, California) using a double exponential decay equation.
# mouse cerebral CB1Rs [2] = target: T1, mouse cerebral CB1Rs (Mus musculus, UniProt P47746); assay: In vivo dynamic PET/CT imaging with [^18F]4, with and without rimonabant blocking
# T1 construct: from tissue
# Description: Dynamic PET scans were performed for 5 month old mice with an Inveon Multimodality PET/CT scanner (Siemens Medical Solutions USA, Knoxville, Tennessee). Mice were anesthetized with 2.5% isoflurane/oxygen gas, and body temperature was maintained with a heating pad and a bubble-wrap cover. CT transmission scans were performed to correct for attenuation. PET scans were initiated in parallel with an intravenous (iv) bolus injection of [^18F]4 to the mouse tail vein (4–5 month old, n = 6, 2 females; injected radioactivity 4.0 ± 0.4 MBq; injected mass 56 ± 25 ng, 1.7 ± 0.7 μg/kg).
# Dynamic emission scans were acquired for 120 min in 3D list mode, with an energy window of 350–650 keV. Scanning times were 120 min (54 frames 30 × 10 s, 15 × 60 s, 4 × 300 s, 2 × 600 s, 3 × 1200 s). The list mode data were stored in 3D sinograms. Data were reconstructed with OSEM3D/MAP software (2 OSEM3D iterations and 18 MAP iterations). The PET/CT images were preprocessed in Matlab R2017a (The MathWorks, Natick, Massachusetts) with an in-house semiautomated pipeline for preclinical images that uses SPM12 (Wellcome Department of Cognitive Neurology, London, UK) preprocessing functionalities and analysis routines. Images were first cropped to a bounding box containing the heads, and individual PET images were coregistered through a rigid-body transformation to their corresponding CT scan. Subjects were spatially normalized through a two-step registration (a rigid followed by an affine transformation) of each subject’s CT to a template CT that was previously constructed as an average of several subjects and was aligned with an atlas T2-weighted MRI template. The combination of transformations was then applied to the PET images, which were also resampled to a voxel size of 0.2 × 0.2 × 0.2 mm^3 (trilinear interpolation), matching the anatomical atlas dimensions.
# Volume of interest (VOI) analysis of the whole brain, neocortex, and hippocampus was performed on each subject by averaging the signal inside a slightly modified version of the Ma et al.[40] atlas delineated VOIs, and data were obtained as standardized uptake values (SUVs). SUVs were calculated as follows: SUV = tissue activity concentration (Bq/mL)/(injected dose (Bq)/body weight (g)); it was assumed that 1 mL of tissue equals 1 g. Tissue activity and dose were decay corrected to the same time point.
# (§1) The specificity of [^18F]4 on mouse cerebral CB1Rs was examined in a 120 min in vivo study, and then, the same mice were used for ex vivo biodistribution and brain autoradiography studies. […] Control mice (n = 3, 1 female) were the given vehicle (90 μL, 10% EtOH in Kleptose β-cyclodextrin). […] Mice were sacrificed 120 min after iv injection of [^18F]4, and the ^18F-radioactivity distribution differences between pretreated and control mice were examined with in vivo PET imaging, ex vivo autoradiography, and 2480 Wizard Gamma Counter, and the data were analyzed as described in the previous sections.
# mouse cerebral CB1Rs [3] = target: T1, mouse cerebral CB1Rs; assay: Ex vivo brain autoradiography with [^18F]4, region-to-thalamus ratios; format: in vivo; details: 120 min post injection
# Description: For autoradiography, brains were further frozen and cut into 20 μm coronal cryosections for digital autoradiography, and the slices were exposed on an imaging plate (BAS-TR2025, Fuji Photo Film Co.) for approximately 2 half-lives and scanned with a Fuji BAS5000 phosphorimager (FUJIFILM Life Science, Stamford, Connecticut). Digital autoradiographic images were analyzed for count densities with the Aida 4 program (Raytest Isotopenmessgeräte GmbH, Straubenhardt, Germany). For brain slices, regions of interest (ROIs) were drawn over the parietotemporal cortex, striatum, frontal cortex, hippocampus, cerebellar gray matter, and thalamus. The autoradiography was quantified as ratios of the different ROIs relative to the thalamus, which was used as the reference region.
# as §1
# [4] = Stability / shelf life of the formulated tracer towards radiolysis; format: physicochemical; details: studied up to 5 h after the EOS, n = 2
# Description: For tracer production for preclinical evaluation, larger amounts of initial [^18F]fluoride were used and full purification and formulation processes were performed. For the radiofluorination, the SPE method with a 30 min reaction at 160 °C was utilized (conditions as in bar 2, Figure 2B). Elution efficiency was 93 ± 2% (n = 5). Total RCY was 16.7 ± 5.7% (decay-corrected to end of bombardment, d.c. to EOB, n = 5), molar activity (Am) > 95 GBq/μmol (d.c. to end of synthesis, EOS, n = 1) and radiochemical purity (RCP) 99.9 ± 0.1% at EOS (n = 5). Activity yield was 1.0 ± 0.4 GBq (n = 5) at EOS. Synthesis time was 87 ± 5 min (n = 5). The amount of ruthenium in the formulated product was 7.8 ± 1.8 μg/mL.
# For PET tracers for clinical use, a generally acknowledged limit for RCP is 95%. […] Lahdenpohja et al. reported that the RCP of [^18F]FMPEP-d2 at EOS varied between 95.5–100% and was a function of radioactivity concentration, which was 20–200 MBq/mL (n > 150) in a 10% ethanolic solution, and the RCP was declined as a function of time due to radiolytic decomposition.[32] The shelf life of the [^18F]FMPEP-d2 was determined to be 120 min.[32] For [^18F]4 formulated in a similar ethanolic solution, the RCP at EOS was 99.9% when the RAC was 200–450 MBq/mL and the shelf life was determined to be at least 300 min, with no significant development of radioactive impurities. […]
# [5] = Ex vivo biodistribution with [^18F]4; format: in vivo, mouse
# Description: All in vivo animals (n = 6, 2 females) and additional 2 month old mice (n = 11, males, injected radioactivity 7.0 ± 3.0 MBq; injected mass 160 ± 60 ng, 6.2 ± 2.6 μg/kg) were used for ex vivo studies to examine the biodistribution and metabolism of [^18F]4. Thus, the injected dose and injected mass to all the animals used (n = 17) were 5.9 ± 2.8 MBq and 120 ± 70 ng, 4.6 ± 3.0 μg/kg, respectively. After iv injection of [^18F]4, mice were sacrificed in deep anesthesia of 4.0% isoflurane with cardiac puncture at 30 (n = 4), 60 (n = 2), and 120 min (in vivo animals, n = 6 and 2 month old mice n = 5). Organs were immediately dissected, weighed, and measured for ^18F-radioactivity in a 2480 Wizard Gamma Counter (Wallac PerkinElmer, Turku, Finland).
# as §1
# [6] = parameters: method as in PMID 29909177; details: 180 min p.i.; cited from earlier work
# CB1R [7] = details: cited from earlier work
# CB1R [8] = test system: CB1R; parameters: method as in doi:10.1016/B978-0-12-417041-4.00002-3; details: cited from earlier work
# [9] = parameters: method as in PMID 32374481; details: 10% ethanolic solution, radiolytic decomposition; cited from earlier work
# [10] = Ex vivo biodistribution with [^18F]FMPEP-d2; format: in vivo, mouse
# Description: After iv injection of [^18F]FMPEP-d2 to the mouse tail vein, the mice were sacrificed at the following time points: 30 min (3–4 month old, n = 3, males; injected radioactivity 1.3 ± 0.3 MBq; injected mass 1.5 ± 0.5 ng), 60 min (3–4 months old, n = 4, males; injected radioactivity 1.2 ± 0.8 MBq; injected mass 1.3 ± 1.0 ng), and 120 min (1.5–6 month old, n = 12, 5 females; injected radioactivity 2.6 ± 0.8 MBq; injected mass 3.1 ± 1.1 ng). Mice were sacrificed in deep anesthesia of 4.0% isoflurane with cardiac puncture. Organs were operated in the similar manner as in the biodistribution study with [^18F]4.
# CB1R [11] = test system: CB1R; parameters: method as in PMID 29909177; details: mice, cited from earlier work
# CB1R [12] = test system: CB1R; parameters: method as in PMID 22699528; details: cited from earlier work
# [13] = 2 mg/kg rimonabant iv 10 min before tracer, 120 min after injection
# T1 sequence (P47746 whole entry): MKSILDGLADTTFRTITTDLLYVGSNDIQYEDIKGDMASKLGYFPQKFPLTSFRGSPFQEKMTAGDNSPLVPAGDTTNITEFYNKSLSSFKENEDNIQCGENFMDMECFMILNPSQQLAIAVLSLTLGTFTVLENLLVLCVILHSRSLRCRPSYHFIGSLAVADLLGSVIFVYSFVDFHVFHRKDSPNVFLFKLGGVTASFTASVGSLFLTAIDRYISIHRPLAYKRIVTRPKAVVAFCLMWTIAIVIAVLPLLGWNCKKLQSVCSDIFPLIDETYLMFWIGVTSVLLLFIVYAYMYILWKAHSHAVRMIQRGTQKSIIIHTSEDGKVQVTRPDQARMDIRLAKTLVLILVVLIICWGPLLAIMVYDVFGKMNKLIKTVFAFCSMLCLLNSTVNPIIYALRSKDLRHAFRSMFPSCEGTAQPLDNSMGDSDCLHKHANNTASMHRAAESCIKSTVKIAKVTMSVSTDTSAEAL
structure (smiles),measurement,setting,value
"C[C@@H](N[C@@H]1C[C@H](c2cccc([18F])c2)N(c2ccc(C(F)(F)F)cc2)C1=O)c1ccccc1 [[^18F]4, (3R,5R)-5-(3-[^18F]fluorophenyl)-3-(((R)-1-phenylethyl)amino)-1-(4-(trifluoromethyl)phenyl)pyrrolidin-2-one]","Residual tracer in plasma, of the total ^18F-radioactivity",[1],approximately 21.3 ± 3.5%
same,"Residual tracer in the cortex, of the total ^18F-radioactivity",[1],75.0 ± 4.3%
same,"Reduction of binding by rimonabant pretreatment, hippocampus",mouse cerebral CB1Rs [2]; [13],62%
same,"Reduction of binding by rimonabant pretreatment, neocortex",mouse cerebral CB1Rs [2]; [13],59%
same,"Reduction of binding by rimonabant pretreatment, whole brain",mouse cerebral CB1Rs [2]; [13],58%
same,Washout,mouse cerebral CB1Rs [2]; wild-type mice,washout phase began immediately after the peak uptake
same,SUV at 120 min p.i. (after washout),"mouse cerebral CB1Rs [2]; wild-type mice, 120 min p.i.",1.3
same,"Peak standardized uptake value (SUV), hippocampus","mouse cerebral CB1Rs [2]; wild-type mice, baseline",2.14
same,"Peak standardized uptake value (SUV), neocortex","mouse cerebral CB1Rs [2]; wild-type mice, baseline",1.80
same,"Peak standardized uptake value (SUV), whole brain","mouse cerebral CB1Rs [2]; wild-type mice, baseline",1.92
same,Time of maximum tracer uptake after injection,"mouse cerebral CB1Rs [2]; wild-type mice, brain PET",30 min
same,Region-to-thalamus ratios in mice pretreated with rimonabant,mouse cerebral CB1Rs [3]; 2 mg/kg rimonabant pretreatment,~1
same,Ratio cortex and cerebellar gray matter to thalamus,mouse cerebral CB1Rs [3]; without blocking,3.7
same,Ratio frontal cortex to thalamus,mouse cerebral CB1Rs [3]; without blocking,2.5
same,Ratio globus pallidus to thalamus,mouse cerebral CB1Rs [3]; without blocking,4.9
same,Ratio parietotemporal cortex to thalamus,mouse cerebral CB1Rs [3]; without blocking,2.3
same,Ratio striatum to thalamus,mouse cerebral CB1Rs [3]; without blocking,2.8
same,Ratio whole hippocampus to thalamus,mouse cerebral CB1Rs [3]; without blocking,2.6
same,Stability of the formulated tracer after EOS,[4],no significant decomposition was observed
same,Cortex uptake,[5]; 30 min p.i.,11.5 ± 3.7 %ID/g
same,Liver uptake,[5]; 30 min p.i.,12.1 ± 0.7 %ID/g
same,Whole brain uptake,[5]; 30 min p.i.,9.8 ± 3.2 %ID/g
same,"Bone uptake (skull bone, parietal bone)",[5]; 120 min p.i.,0.4 ± 0.1 %ID/g
same,Cortex uptake,[5]; 120 min p.i.,5.1 ± 1.17 % ID/g
same,Liver uptake,[5]; 120 min p.i.,8.2 ± 1.6 %ID/g
same,Whole brain uptake,[5]; 120 min p.i.,4.9 ± 0.9 %ID/g
same,Cortex uptake in rimonabant treated mice,"[5]; 120 min p.i., 2 mg/kg rimonabant pretreatment",1.8 ± 0.2 %ID/g
"C[C@@H](N[C@@H]1C[C@H](c2cccc(OC[18F])c2)N(c2ccc(C(F)(F)F)cc2)C1=O)c1ccccc1 [[^18F]FMPEP-d2, (3R,5R)-5-(3-([^18F]fluoromethoxy)phenyl)-3-(((R)-1-phenylethyl)amino)-1-(4-(trifluoromethyl)phenyl)pyrrolidin-2-one]",Amount of residual tracer,[6],86%
same,Washout,CB1R [7]; human studies,slow washout
same,CB1R vs CB2R selectivity,CB1R [8],3580
same,Kb,"CB1R [8]; for CB1R, read-out: In vitro potency (Kb)",187 pM
same,Shelf life,[9],120 min
same,Whole brain ^18F-radioactivity uptake,"[10]; 30 min p.i., healthy mice",5.6 ± 1.3 %ID/g
same,Skull bone (parietal bone) radioactivity uptake,"[10]; 120 min p.i., healthy mice",2.7 ± 0.5 %ID/g
same,Defluorination compared to [^18F]4,"[10]; at 120 min, from skull bone uptake",over 6 fold
same,Washout,CB1R [11]; up to 90 min p.i.,essentially no washout was observed
same,Time of maximum tracer uptake,CB1R [11],30 min
same,Whole brain SUV,CB1R [11],1.5
"Cc1ccc(OC(C)(C)C(=O)N[C@@H](C)[C@@H](Cc2ccc(OCC[18F])cc2)c2cccc(C#N)c2)nc1 [[^18F]MK-9470, N-{(1S,2S)-2-(3-cyanophenyl)-3-[4-(2-[^18F]fluoroethoxy)phenyl]-1-methylpropyl}-2-methyl-2-[(5-methylpyridin-2-yl)oxy]propanamide]",Washout,"CB1R [7]; human, even after 6 h",no washout was observed
same,Time of maximum tracer uptake post injection,CB1R [12]; rat,300 min
same,Washout,"CB1R [12]; rats, even after 600 min",no washout was observed
